Patent US20250066370A1, “BICYCLIC TRIAZINE DERIVATIVES FOR THE TREATMENT OF CANCER” (DEUTSCHES KREBSFORSCHUNGSZENTRUM, priority 2022, published 2025)

Experiments:
CDK12/CyclinK = CDK12/CyclinK (Homo sapiens (Human), UniProt Q9NYV4); assay: CDK12/CycK high ATP kinase assay (TR-FRET); assay type: biochemical; conditions: for IC50: 2 mM ATP (high ATP), median, read-out: CDK12/CyclinK, 2 mM ATP (high ATP), IC50 - [mol/l] (median); for (IC50 CDK12 high ATP) to (Degradation DC50 CDK12) ratio: IC50 CDK12 at 2 mM ATP divided by CDK12 degradation DC50 (IF, CAL-120)
Method: In the context of the present invention, the term “IC50 CDK12 hATP” refers to the IC50 values obtained according to the assay described in this section (2.2) herein below, i.e. the IC50 values for the inhibition of CDK12 at high (2 mM) ATP.
CDK12/CycK-inhibitory activity of compounds of the present invention at 2 millimol/L adenosine-tri-phosphate (ATP) was quantified employing the TR-FRET (TR-FRET=Time Resolved Fluorescence Energy Transfer) based CDK12/CycK activity inhibition assay as described in the following paragraphs.
A complex of human recombinant CDK12 and human recombinant CycK (both N-terminally His-tagged, expression and purification as described above) was used as enzyme. As substrate for the kinase reaction biotinylated peptide biotin-Ahx-KFELLPTPPLSPSRRSGL (C-terminus in amid form) was used which can be purchased e.g. form the company Biosyntan (Berlin-Buch, Germany).
For the assay 50 nanoL of a 100 fold concentrated solution of the test compound in DMSO was pipetted into either a black low volume 384 well microtiter plate or a black 1536 well microtiter plate (both Greiner Bio-One, Frickenhausen, Germany), 2 microL of a solution of CDK12/CycK in aqueous assay buffer [25 millimol/L HEPES pH 7.5, 20 millimol/L MgCl2, 5 millimol/L β-glycerophosphate, 2 millimol/L EGTA, 1.0 millimol/L dithiothreitol, 0.01% (v/v) Nonidet-P40 (Sigma), 0.01% (w/v) bovine serum albumin] were added and the mixture was incubated for 15 min at 22° C. to allow pre-binding of the test compounds to the enzyme before the start of the kinase reaction. Then the kinase reaction was started by the addition of 3 microL of a solution ATP (3.33 millimol/L=>final conc. in the 5 microL assay volume is 2 millimol/L) and substrate (1.67 micromol/L=>final conc. in the 5 microL assay volume is 1 micromol/L) in assay buffer and the resulting mixture was incubated for a reaction time of 60 min at 22° C. The concentration of CDK12/CycK was adjusted depending of the activity of the enzyme lot and was chosen appropriate to have the assay in the linear range, typical concentrations were about 0.75 nanomol/L. The reaction was stopped by the addition of 3 microL of a solution of TR-FRET detection reagents (125 nanomol/L streptavidine-XL665 [Cisbio Bioassays, Codolet, France] and 0.67 nanomol/L anti-Phospho-c-Myc (Ser 62) (E1J4K)-antibody from Cell Signalling [#13748] and 2 nanomol/L LANCE EU-W1024 labeled anti-rabbit IgG antibody [Perkin-Elmer, product no. 0083]) in an aqueous EDTA-solution (133 millimol/L EDTA, 0.27% (w/v) bovine serum albumin in 66.7 millimol/L HEPES pH 7.5).
The resulting mixture was incubated 1 h at 22° C. to allow the formation of complex between the phosphorylated biotinylated peptide and the detection reagents. Subsequently the amount of phosphorylated substrate was evaluated by measurement of the resonance energy transfer from the Eu-chelate to the streptavidine-XL. Therefore, the fluorescence emissions at 620 nm and 665 nm after excitation at 350 nm was measured in a TR-FRET reader, e.g. a Pherastar FS (BMG Labtechnologies, Offenburg, Germany) or a Viewlux (Perkin-Elmer). The ratio of the emissions at 665 nm and at […] was taken as the measure for the amount of phosphorylated substrate. The data were normalised (enzyme reaction without inhibitor=0% inhibition, all other assay components but no enzyme=100% inhibition).

[1] = tested on: BRCA1 mRNA expression in MDA-MB-231 cells; assay: qRT-PCR assay: inhibition of BRCA1 mRNA expression in MDA-MB-231 cells; assay type: cell-based; conditions: Homo sapiens, 24 h exposure, BRCA1 normalised to GAPDH, median, read-out: RTqPCR-MDA-MB-231, IC50 [mol/l], BRCA1 (median)
Method: 3. qRT-PCR Assay: BRCA1, ATR, MCL1 in MDA-MB-231, CAL-120
Tissue cultured human MDA-MB-231 human breast cancer cells were plated in 500 microL per well at 200,000 cells/well in a 24 well microtiter plate. After 24 h, the cells were exposed continuously for 24 h to test substances (substances were added with Tecan HP D300 Dispenser). RNA was prepared using Qiagen RNeasy MiniKit (#74106), RNA was quantified using a NanoDrop Equipment, and 600 nano grams of RNA was converted to cDNA using a SuperScript VILO kit (Thermofisher #11755050) followed by qPCR amplification. BRCA1 and ATR gene expression was measured by RT-qPCR and normalised to GAPDH housekeeping gene expression. qPCR primer sets have been purchased from Thermo Fisher Scientific/Applied Biosystems: BRCA1, #Hs 01556193; ATR. #Hs 00992123: GAPDH. #Hs 03929097.

CDK12/CyclinK, sequence (Q9NYV4 other isoform, or with tags, fused parts or gaps): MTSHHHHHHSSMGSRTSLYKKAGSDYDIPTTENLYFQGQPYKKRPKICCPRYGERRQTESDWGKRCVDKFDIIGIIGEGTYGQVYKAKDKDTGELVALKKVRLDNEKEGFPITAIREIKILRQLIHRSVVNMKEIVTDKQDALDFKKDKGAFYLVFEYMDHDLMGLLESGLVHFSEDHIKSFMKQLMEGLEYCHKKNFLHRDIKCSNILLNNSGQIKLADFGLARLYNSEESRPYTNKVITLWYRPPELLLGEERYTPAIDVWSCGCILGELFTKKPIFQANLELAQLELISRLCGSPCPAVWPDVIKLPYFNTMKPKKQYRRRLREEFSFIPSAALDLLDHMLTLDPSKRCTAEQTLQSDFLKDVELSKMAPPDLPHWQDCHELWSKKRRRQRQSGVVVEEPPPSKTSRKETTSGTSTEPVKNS
CDK12/CyclinK, sequence (O75909 other isoform, or with tags, fused parts or gaps partner): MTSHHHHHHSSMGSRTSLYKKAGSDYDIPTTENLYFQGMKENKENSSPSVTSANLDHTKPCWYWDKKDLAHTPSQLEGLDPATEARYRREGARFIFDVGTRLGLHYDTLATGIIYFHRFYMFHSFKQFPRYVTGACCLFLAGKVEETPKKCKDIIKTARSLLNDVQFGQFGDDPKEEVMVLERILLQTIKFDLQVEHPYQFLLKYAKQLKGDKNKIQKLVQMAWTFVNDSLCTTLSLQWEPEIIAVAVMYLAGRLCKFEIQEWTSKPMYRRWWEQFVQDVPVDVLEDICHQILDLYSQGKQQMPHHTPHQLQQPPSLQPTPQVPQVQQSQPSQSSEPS

Row | IC50 (CDK12/CyclinK) [nM] | (IC50 CDK12 high ATP) to (Degradation DC50 CDK12) ratio (CDK12/CyclinK) | SMILES | IC50 [1] [nM]
1 | 32.3 | 0.04 | FC(F)(F)c1ccc(-c2nnc(CNc3nc(N4CCOCC4)nn4c(C(F)(F)F)cnc34)[nH]2)cc1 [Example 11, 2-(morpholin-4-yl)-7-(trifluoromethyl)-N-({5-[4-(trifluoromethyl)phenyl]-4H-1,2,4-triazol-3-yl}methyl)imidazo[2,1-f][1,2,4]triazin-4-amine] | –
2 | – | – | COc1ccc(-c2nnc(CNc3nc(N4CCOCC4)nn4c(C(F)(F)F)cnc34)[nH]2)cn1 [Example 18, N-{[5-(6-methoxypyridin-3-yl)-4H-1,2,4-triazol-3-yl]methyl}-2-(morpholin-4-yl)-7-(trifluoromethyl)imidazo[2,1-f][1,2,4]triazin-4-amine] | 71.5
3 | – | – | COc1ccc(-c2cnc(CNc3nc(N4CCOCC4)nc4c(C(F)(F)F)cnn34)[nH]2)cn1 [Example 21, N-{[5-(6-methoxypyridin-3-yl)-1H-imidazol-2-yl]methyl}-2-(morpholin-4-yl)-8-(trifluoromethyl)pyrazolo[1,5-a][1,3,5]triazin-4-amine] | 98.8
4 | 26.3 | 0.04 | FC(F)(F)c1ccc(-c2cnc(CNc3nc(N4CCOCC4)nn4c(C(F)(F)F)cnc34)[nH]2)cc1 [Example 7, 2-(morpholin-4-yl)-7-(trifluoromethyl)-N-({5-[4-(trifluoromethyl)phenyl]-1H-imidazol-2-yl}methyl)imidazo[2,1-f][1,2,4]triazin-4-amine] | –
5 | 267 | <0.09 | FC(F)(F)c1ccc(-c2cnc(CNc3nc(N4CCOCC4)nc4c(Br)cnn34)[nH]2)cc1 [Example 3, 8-bromo-2-(morpholin-4-yl)-N-({5-[4-(trifluoromethyl)phenyl]-1H-imidazol-2-yl}methyl)pyrazolo[1,5-a][1,3,5]triazin-4-amine] | –
6 | 8.34 | 9.34E−03 | FC(F)(F)Oc1ccc(-c2cnc(CNc3nc(N4CCOCC4)nn4c(C(F)(F)F)cnc34)[nH]2)cc1 [Example 8, 2-(morpholin-4-yl)-N-({5-[4-(trifluoromethoxy)phenyl]-1H-imidazol-2-yl}methyl)-7-(trifluoromethyl)imidazo[2,1-f][1,2,4]triazin-4-amine] | 38.2
7 | 736 | 0.74 | FC(F)(F)c1ccc(-c2nnc(CNc3nc(N4CCOCC4)nc4c(C(F)(F)F)cnn34)[nH]2)cc1 [Example 6, 2-(morpholin-4-yl)-8-(trifluoromethyl)-N-({5-[4-(trifluoromethyl)phenyl]-4H-1,2,4-triazol-3-yl}methyl)pyrazolo[1,5-a][1,3,5]triazin-4-amine] | –
8 | 750 | <0.27 | FC(F)(F)Oc1ccc(-c2nnc(CNc3nc(N4CCOCC4)nc4c(Br)cnn34)[nH]2)cc1 [Example 2, 8-bromo-2-(morpholin-4-yl)-N-({5-[4-(trifluoromethoxy)phenyl]-4H-1,2,4-triazol-3-yl}methyl)pyrazolo[1,5-a][1,3,5]triazin-4-amine] | 272
9 | 3.09 | <3.09E−3 | FC(F)(F)c1ccc(-c2cnc(CNc3nc(N4CCOCC4)nn4c(C(F)(F)F)cnc34)[nH]2)cn1 [Example 12, 2-(morpholin-4-yl)-7-(trifluoromethyl)-N-({5-[6-(trifluoromethyl)pyridin-3-yl]-1H-imidazol-2-yl}methyl)imidazo[2,1-f][1,2,4]triazin-4-amine] | 7.57
10 | 34.8 | <0.03 | FC(F)(F)Oc1ccc(-c2cnc(CNc3nc(N4CCOCC4)nc4c(Br)cnn34)[nH]2)cc1 [Example 4, 8-bromo-2-(morpholin-4-yl)-N-({5-[4-(trifluoromethoxy)phenyl]-1H-imidazol-2-yl}methyl)pyrazolo[1,5-a][1,3,5]triazin-4-amine] | 6.94
11 | 7.59 | <7.59E−3 | FC(F)(F)Oc1ccc(-c2cnc(CNc3nc(N4CCOCC4)nc4c(C(F)(F)F)cnn34)[nH]2)cc1 [Example 10, 2-(morpholin-4-yl)-N-({5-[4-(trifluoromethoxy)phenyl]-1H-imidazol-2-yl}methyl)-8-(trifluoromethyl)pyrazolo[1,5-a][1,3,5]triazin-4-amine] | 37.3
12 | – | – | FC(F)(F)c1ccc(-c2cnc(CNc3nc(N4CCOCC4)nc4c(C(F)(F)F)cnn34)[nH]2)cn1 [Example 24, 2-(morpholin-4-yl)-8-(trifluoromethyl)-N-({5-[6-(trifluoromethyl)pyridin-3-yl]-1H-imidazol-2-yl}methyl)pyrazolo[1,5-a][1,3,5]triazin-4-amine] | 29.5
13 | 262 | 0.26 | FC(F)(F)Oc1ccc(-c2nnc(CNc3nc(N4CCOCC4)nc4c(C(F)(F)F)cnn34)[nH]2)cc1 [Example 5, 2-(morpholin-4-yl)-N-({5-[4-(trifluoromethoxy)phenyl]-4H-1,2,4-triazol-3-yl}methyl)-8-(trifluoromethyl)pyrazolo[1,5-a][1,3,5]triazin-4-amine] | 109
14 | 489 | <0.49 | Cc1ccc(-c2nnc(CNc3nc(N4CCOCC4)nc4c(C(F)(F)F)cnn34)[nH]2)cn1 [Example 22, N-{[5-(6-methylpyridin-3-yl)-4H-1,2,4-triazol-3-yl]methyl}-2-(morpholin-4-yl)-8-(trifluoromethyl)pyrazolo[1,5-a][1,3,5]triazin-4-amine] | –
15 | 9.21 | 9.69E−03 | FC(F)(F)c1ccc(-c2cnc(CNc3nc(N4CCOCC4)nc4c(C(F)(F)F)cnn34)[nH]2)cc1 [Example 9, 2-(morpholin-4-yl)-8-(trifluoromethyl)-N-({5-[4-(trifluoromethyl)phenyl]-1H-imidazol-2-yl}methyl)pyrazolo[1,5-a][1,3,5]triazin-4-amine] | 102
16 | 526 | <0.53 | COc1ccc(-c2nnc(CNc3nc(N4CCOCC4)nc4c(C(F)(F)F)cnn34)[nH]2)cn1 [Example 15, N-{[5-(6-methoxypyridin-3-yl)-4H-1,2,4-triazol-3-yl]methyl}-2-(morpholin-4-yl)-8-(trifluoromethyl)pyrazolo[1,5-a][1,3,5]triazin-4-amine] | –
17 | 11.9 | <0.01 | FC(F)(F)c1ccc(-c2nnc(CNc3nc(N4CCOCC4)nn4c(C(F)(F)F)cnc34)[nH]2)cn1 [Example 20, 2-(morpholin-4-yl)-7-(trifluoromethyl)-N-({5-[6-(trifluoromethyl)pyridin-3-yl]-4H-1,2,4-triazol-3-yl}methyl)imidazo[2,1-f][1,2,4]triazin-4-amine] | 53.8
